Key:
[1] = system: disordered cell growth induced by transforming Ras-CVLS in COS monkey kidney cells; test: Cell-based assay: disordered cell growth induced by transforming Ras in COS cells (microscopy)
Source text: (§1) 2. Cell-Based Assay: Transient expression of val^12-Ha-Ras-CVLS and val^12-Ha-Ras-CVLL in COS monkey kidney cells: Effect of farnesyl protein transferase inhibitors on Ras processing and on disordered cell growth induced by transforming Ras.
(§2) COS monkey kidney cells were transfected by electroporation with the plasmid pSV-SPORT (Gibco/BRL) containing a cDNA insert encoding either Ras-CVLS or Ras-CVLL, leading to transient overexpression of a Ras substrate for either farnesyl protein transferase or geranylgeranyl protein transferase I, respectively (see above).
(§3) Following electroporation, cells were plated into 6-well tissue culture dishes containing 1.5 ml of Dulbecco's-modified Eagle's media (GIBCO, Inc.) supplemented with 10% fetal calf serum and the appropriate farnesyl protein transferase inhibitors. After 24 hours, media was removed and fresh media containing the appropriate drugs was re-added.
48 hours after electroporation cells were examined under the microscope to monitor disordered cell growth induced by transforming Ras. Cells expressing transforming Ras become more rounded and refractile and overgrow the monolayer, reminiscent of the transformed phenotype. […]

[2] = system: SW620 [human colon adenocarcinoma (lymph node metastasis)]; test: In vivo anti-tumor study, SW620 s.c. tumor; set-up: species or system mouse; details: po
Source text: In Vivo Anti-Tumor Studies
Tumor cells (5×10^5 to 8×10^6 of M27 [mouse Lewis lung carcinoma], A431 [human epidermal carcinoma] or SW620 [human colon adenocarcinoma (lymph node metastasis)]) are innoculated subcutaneously into the flank of 5-6 week old athymic nu/nu female mice. For the C-f-1 [mouse fibroblast transformed with c-fos oncogene] tumor model, 2 mm^3 tumor fragments are transplanted subcutaneously into the flank of 5-6 week old athymic nu/nu female mice. Tumor bearing animals are selected and randomized when the tumors are established. Animals are treated with vehicle (beta cyclodextran for i.p. or corn oil for p.o.) only or compounds in vehicle twice a day (BID) for 5 (1-5) or 7 (1-7) days per week for 2 (×2) or 4 (×4) weeks. The percent inhibition of tumor growth relative to vehicle controls are determined by tumor measurements.

[3] = system: Normal human HEPM fibroblasts; test: Cell Mat assay: inhibition of normal cell growth; type: cell-based; details: Homo sapiens, Fibroblast, mIC50, normal cell monolayer
Procedure: Normal human HEPM fibroblasts were planted in 3.5 cm dishes at a density of 5×10^4 cells/dish in 2 ml growth medium, and incubated for 3-5 d to achieve confluence. Medium was aspirated from each dish and the indicator tumor cells, T24-BAG4 human bladder carcinoma cells expressing an activated H-ras gene, were planted on top of the fibroblast monolayer at a density of 2×10^3cells/dish in 2 ml growth medium, and allowed to attach overnight. Compound-induced colony inhibition was assayed by addition of serial dilutions of compound directly to the growth medium 24 h after tumor cell planting, and incubating cells for an additional 14 d to allow colony formation. Assays were terminated by rinsing monolayers twice with phosphate-buffered saline (PBS), fixing the monolayers with a 1% glutaraldehyde solution in PBS, then visualizing tumor cells by staining with X-Gal (Price, J., et al., Lineage analysis in the vertebrate nervous system by retrovirus-mediated gene transfer, Proc. Natl. Acad. Sci.84, 156-160(1987)). […] Both IC50 values were obtained by determining the density of tumor cells and mat cells by visual inspection and enumeration of cells per colony and the number of colonies under the microscope. The therapeutic index of the compound was quantitatively expressed as the ratio of mIC50/tIC50, with values greater than one indicative of tumor target specificity.

[4] = system: Ras-CVLS processing in COS monkey kidney cells; test: Cell-based assay: Ras-CVLS processing in transfected COS cells (immunoblot); details: Primates; inhibition of Ras-CVLS processing in Ras-transfected COS cells
Source text: as §1, §2, §3
48 hours after electroporation cells were examined under the microscope to monitor disordered cell growth induced by transforming Ras. Cells expressing transforming Ras become more rounded and refractile and overgrow the monolayer, reminiscent of the transformed phenotype. Cells were then photographed, washed twice with 1 ml of cold phosphate-buffered saline (PBS) and removed from the dish by scraping with a rubber policeman into 1 ml of a buffer containing 25 mM Tris, pH 8.0; 1 mM ethylenediamine tetraacetic acid; 1 mM phenylmethylsulfonyl fluoride; 50 μM leupeptin; and 0.1 μM pepstatin. Cells were lysed by homogenization and cell debris was removed by centrifugation at 2000×g for 10 min.
Cellular protein was precipitated by addition of ice-cold trichloroacetic acid and redissolved in 100 μl of SDS-electrophoresis sample buffer. Samples (5-10 μl) were loaded onto 14% polyacrylamide minigels (Novex, Inc.) and electrophoresed until the tracking dye neared the bottom of the gel. Proteins resolved on the gels were electroblotted onto nitrocellulose membranes for immunodetection.
Membranes were blocked by incubation overnight at 4° C. in PBS containing 2.5% dried milk and 0.5% Tween-20 and then incubated with a Ras-specific monoclonal antibody, Y13-259 (Furth, M. E., et al., (1982), Monoclonal antibodies to the p21 products of the transforming gene of Harvey murine sarcome virus and of the cellular ras gene family, J. Virol. 43: 294-304), in PBS containing 1% fetal calf serum for one hour at room temperature. After washing, membranes were incubated for one hour at room temperature with a 1:5000 dilution of secondary antibody, rabbit anti-rat IgG conjugated to horseradish peroxidase, in PBS containing 1% fetal calf serum. The presence of processed and unprocessed Ras-CVLS or Ras-CVLL was detected using a calorimetric peroxidase reagent (4-chloro-1-naphthol) as described by the manufacturer (Bio-Rad).

[5] = molecular target: T1, farnesyl protein transferase (FPT) (Rattus norvegicus, UniProt Q02293+Q04631); test: In vitro enzyme assay: inhibition of farnesyl protein transferase; type: biochemical; details: Ras-CVLS farnesylation, partially purified rat brain FPT; read-out: FPT IC50
T1 construct: were partially purified from rat brain by ammonium sulfate fractionation followed by Q-Sepharose; from tissue; host or cells: rat brain
Procedure: 1. In vitro enzyme assays: Inhibition of farnesyl protein transferase and geranylgeranyl protein transferase.
Human farnesyl protein transferase was also expressed in E. coli, using cDNA clones encoding both the α and β subunits. […] Two forms of val^12-Ha-Ras protein were prepared as substrates for these enzymes, differing in their carboxy terminal sequence. One form terminated in cysteine-valine-leucine-serine (Ras-CVLS) the other in cystein-valine-leucine-leucine (Ras-CVLL). Ras-CVLS is a substrate for the farnesyl protein transferase while Ras-CVLL is a substrate for geranylgeranyl protein transferase I. The cDNAs encoding these proteins were constructed so that the proteins contain an amino-terminal extension of 6 histidine residues. Both proteins were expressed in Escherichia coli and purified using metal chelate affinity chromatography. The radiolabelled isoprenyl pyrophosphate substrates, [^3H]farnesyl pyrophosphate and [^3H]geranylgeranyl pyrophosphate, were purchased from DuPont/New England Nuclear.
The reaction was allowed to proceed for 30 minutes at room temperature and then stopped with 0.5 ml of 4% sodium dodecyl sulfate (SDS) followed by 0.5 ml of cold 30% trichloracetic acid (TCA). Samples were allowed to sit on ice for 45 minutes and precipitated Ras protein was then collected on GF/C filter paper mats using a Brandel cell harvester. […] Percent inhibition was calculated relative to the DMSO vehicle control.

IC50 [5]: 3.7 µM
SMILES: CCOC(=O)N1CCC(C2(F)c3ccc(Cl)cc3CCc3cccnc32)CC1 (stereo not shown) [Compound 530.00]
response to oncogenic Ras-CVLS (overgrowth of monolayer, dense foci) ([1]; at 6.6 μg/ml): inhibited
response to oncogenic Ras-CVLS (overgrowth of monolayer, dense foci) ([1]; at 20 μg/ml): inhibited
average % tumor inhibition ([2]; SW620, 100 MPK, 10/wk, ×4): 57%
% Inhibition (tumor growth relative to vehicle controls) ([2]; SW-620 s.c. in athymic nu/nu mice, BID, 1-5, × 4): 73%
IC50 [3]: 100 µM
IC50 [4]: 15.4 µM

— patent publication US6492381B1, “Tricyclic carbamate compounds useful for inhibition of G-protein function and for treatment of proliferative diseases” (Schering Corp., priority 1993, dated 2002)
